From patent US12251382B2, “Substituted amino-pyrimidine compound for use in a method for treatment and prevention of multiple sclerosis” (Merck Patent GmbH, priority 2018, dated 2025)
Structures can show the parent of a compound that is named as a salt.

Columns and labels:
[1] = Phase II RMS study: safety (adverse events, laboratory) over 24 weeks; format: in vivo; conditions: 240 mg twice daily, 24 weeks
Description: (§1) The assessing Investigator and central MRI reader were treatment blinded.
Safety profile of the IMP was assessed through the recording, reporting and analysis of baseline medical conditions; AEs; physical examination findings including vital signs, ECGs, and laboratory tests (including Ig and subclass concentration and B, NK, and T cell counts). Comprehensive assessment of any apparent toxicity experienced by each subject was performed from the time of giving informed consent and throughout the trial. The Investigator was to report any AEs, whether observed by the Investigator or reported by the subject.
Adverse Event: An AE was any untoward medical occurrence in a subject or clinical investigation subject administered a pharmaceutical product, regardless of causal relationship with this treatment. An AE could therefore be any unfavorable and unintended sign (including an abnormal laboratory finding), symptom, or disease temporally associated with the use of a medicinal product, whether or not considered related to the medicinal product.
The Investigator was required to grade the severity or toxicity of each AE. Investigators referenced the National Cancer Institute-Common Terminology Criteria for AEs (NCI-CTCAE), Version 4.03 (publication date: 14 Jun. 2010) a descriptive terminology provided in the Manual of Procedures that can be used for AE reporting.
A general grading (severity/intensity; hereafter referred to as severity) scale was provided at the beginning of the above referenced document, and specific event grades were also provided. Only if a particular AE's severity was not specifically graded by the guidance document, then the Investigator was to use the general NCI-CTCAE definitions of Grade 1 through Grade 5 following his or her best medical judgment. The 5 general grades are: • Grade 1 or Mild • Grade 2 or Moderate • Grade 3 or Severe • Grade 4 or Life-threatening • Grade 5 or Death.
Serious Adverse Events: An SAE is any untoward medical occurrence that at any dose: • Results in death. • Is life-threatening. (Note: The term “life-threatening” refers to an event in which the subject is at risk of death at the time of the event, not an event that hypothetically might have caused death if it was more severe) • Requires inpatient hospitalization or prolongs an existing hospitalization, except in the case of hospitalizations due to protocol-defined relapses. • Results in persistent or significant disability or incapacity. • Is a congenital anomaly or birth defect. • Is otherwise considered to be medically important.

[2] = system: human patients suffering from relapsing multiple sclerosis (RMS); experiment: Phase II RMS study: brain MRI (Gd+ T1 lesions, T2 lesions); format: in vivo; set-up: key to Gd+ T1 lesion rate (subject level), Median / Gd+ T1 Lesion rate, adjusted (negative binomial model): number of Gd+ T1 lesions per scan
Description: as §1
The protocol specified that subjects self-administered the IMP at a set time each day (every 12 hours ±2 hours). Subjects were to take their daily dose more than 1 hour prior to a meal or snack and more than 2 hours after a meal or snack. Clear fluids were allowed at any time. On trial visit days, the IMP was to be administered during the trial visit after the scheduled trial visit procedures (other than post-treatment PK/PD sampling) are completed.
Stratification occurred by region (USA or Western Europe, Eastern Europe and BTKO capable, Eastern Europe and not BTKO capable, and RoW). For the first 7 days, Tecfidera was administered orally at 120 mg twice daily. Following this and for the duration of treatment, Tecfidera was administered orally at 240 mg twice daily.
The protocol specified that MRI scans were to be performed at Screening, at 4-week intervals from Week 12 to 24, and at the End of Treatment Visit at Week 48 (including for subjects receiving Tecfidera who choose to enter the OLE Period). […] If a subject discontinued the study more than 4 weeks after his or her most recent MRI, the protocol specified that an MRI may be obtained at the 4-week Safety Follow-up Visit. The Screening MRI scan was to be acquired before randomization and dosing to allow for the readouts to be read by the central MRI reader (approximately 7 days).
Gadolinium was used to enhance T1-weighted lesions and to optimize clarity and accuracy of reporting. As gadolinium is excreted renally, subjects with acute renal insufficiency (eGFR <45 mL/min/1.73 m^2) will be excluded from the trial.
The protocol specified that brain MRI scans were performed according to a standardized imaging protocol before and after the administration of single-dose gadolinium. Images were assessed and reported by an independent, blinded, centralized MRI reading service, provided by NeuroRx Research. The assessment was performed in the absence of clinical information. Further details, including the scans required and the optimal MRI workflow, were provided in a separate Imaging Manual provided to each trial site by NeuroRx Research. All MRI images were reviewed and reported locally by a radiologist for safety. The local report was to contain only non-MS pathology and was to be provided to the Treating Investigator.
The primary endpoint was the total number of gadolinium-enhancing T1 lesions at Week 12, 16, 20, and 24. The primary analysis was a comparison of each evobrutinib dose arm versus placebo based on this endpoint, with a supportive test for dose-response. Secondary Endpoints
Other covariates were permitted to be considered. […] Descriptive statistics for the total number of Gd+ T1 lesions, at Week 12, 16, 20, and 24, are provided for each treatment group.
Estimation of mean per-scan number of Gd+ T1 lesions at Weeks 12, 16, 20, and 24, for each treatment group, was based on the NB model. In the analysis of each secondary endpoint, other covariates were permitted to be included in the model.
Primary and secondary efficacy endpoints were analysed based on the modified intention-to-treat (mITT) analysis set, consisting of all randomized patients with at least one available baseline and one post-baseline MRI assessment. […] For each endpoint, rate ratio (RR; null-hypothesis RR=1.0) adjusted for baseline disease activity was reported together with associated 95% CI and p-value. The T2 lesion endpoint was analysed similarly. Dose-response relationships between evobrutinib treatment dose and primary and key secondary endpoints were assessed for linear and monotonic trend. The analysis of CFB in cube root of volume of T2 lesions at Week 24 was based on a mixed-effect model for repeated measures, with fixed effects for treatment, week of visit, and treatment-by-week interaction, random effect for subject, and adjustment for baseline cube root of lesion volume. CFB in SF-36 score at Week 24 was analysed similarly. […]

[3] = system: human patients suffering from relapsing multiple sclerosis (RMS); experiment: Phase II RMS study: HRQoL SF-36 Physical Component Summary score; format: in vivo; conditions: open-label reference arm, 240 mg twice daily
Description: Analysis of Primary Endpoint
(§2) Primary and secondary efficacy endpoints were analysed based on the modified intention-to-treat (mITT) analysis set, consisting of all randomized patients with at least one available baseline and one post-baseline MRI assessment. […] For each endpoint, rate ratio (RR; null-hypothesis RR=1.0) adjusted for baseline disease activity was reported together with associated 95% CI and p-value. The T2 lesion endpoint was analysed similarly. Dose-response relationships between evobrutinib treatment dose and primary and key secondary endpoints were assessed for linear and monotonic trend. The analysis of CFB in cube root of volume of T2 lesions at Week 24 was based on a mixed-effect model for repeated measures, with fixed effects for treatment, week of visit, and treatment-by-week interaction, random effect for subject, and adjustment for baseline cube root of lesion volume. CFB in SF-36 score at Week 24 was analysed similarly. Descriptive statistics were used to further describe the study outcomes.

[4] = system: human patients suffering from relapsing multiple sclerosis (RMS); experiment: Phase II RMS study: qualified relapse assessment (ARR, relapse-free status); format: in vivo; conditions: open-label reference arm, 240 mg twice daily, Week 24
Description: as §1
Subjects were assessed for MS relapse at visits beginning at Week 4. Relapse was also assessed at any Unscheduled Visit for Neurological Worsening and Relapse Assessment. For subjects in the OLE Period, MS relapse was assessed at all visits. A qualifying relapse was defined as new, worsening or recurrent neurological symptoms attributed to MS that last for at least 24 hours without fever or infection, or adverse reaction to prescribed medication, preceded by a stable or improving neurological status of at least 30 days. The relapse must have been accompanied by new clinical signs (i.e., changes in the neurological examination or an increase in EDSS score).
The protocol specified that all cases of potential relapse were to be objectively confirmed by the Investigator regardless of whether they were identified during a scheduled or unscheduled visit. Any assessments needed to confirm the relapse were to be performed, and details of the relapse were to be documented within the relevant section(s) of the eCRF.
Additional Secondary Endpoints
Analysis of secondary endpoints was based on the mITT analysis set. […] Descriptive statistics for ARR were calculated for each treatment group as the total number of qualified relapses divided by the number of subject-years of observation.
as §2

[5] = therapeutic or supratherapeutic doses, thorough QT studies; cited from earlier work
[6] = open-label reference arm, 240 mg twice daily

Compound	TEAE: Infections and infestations [1]	TEAE: Urinary tract infection [1]	Total Gd+ T1 lesions over 4 scans in an outlier patient ([2]; one patient of the open-label reference arm)	Change in volume of T2 lesions from baseline to week 24, Mean ± SD [2, 6]	Change in volume of T2 lesions from baseline to week 24, Median [2, 6]	Gd+ T1 lesion rate (subject level), Median [2, 6]	Gd+ T1 lesion rate (subject level; count per scan, weeks 12-24), Mean ± SD [2, 6]	Total Number of New or Enlarging T2 Lesions at Week 24, Mean ± SD [2, 6]	Total number of Gd+ T1 lesions at Weeks 12, 16, 20, 24, Mean ± SD [2, 6]	Total number of Gd+ T1 lesions at Weeks 12, 16, 20, 24, Median (min-max) [2, 6]	New or enlarging T2 lesion rate (subject level), Mean ± SD ([2]; open-label reference arm, 240 mg twice daily, Weeks 12-24)	Total number of Gd+ T1 lesions at Weeks 12, 16, 20, 24, Mean ± SD ([2]; open-label reference arm, 240 mg twice daily, listed as dimethyl fumarate)	Change in SF-36 PCS score from baseline to week 24, Mean ± SD [3]	Change in SF-36 PCS score from baseline to week 24, Median [3]	Change in SF-36 PCS score from baseline to week 24, Mean ± SD ([3]; listed as dimethyl fumarate)	Proportion of patients who qualified as relapse-free [4]	Unadjusted ARR [4]	Prolongation of the QTc interval [5]
COC(=O)/C=C/C(=O)OC [Dimethyl fumarate, dimethyl fumarate, reference compound]	7 (13.0) n (%)	0 (0.0) n (%)	230	0.46 ± 2.97 cc	−0.02 cc	0.0	1.45 ± 7.29	5.35 ± 16.67	5.78 ± 29.17	0 (0-213)	1.54 ± 5.46	5.78 (±29.17)	1.6 ± 5.17	1.7	1.6±5.17	89%	0.20	
CC#CC(=O)N1CCC[C@H]1c1nc(-c2ccc(C(=O)Nc3ccccn3)cc2)c2c(N)nccn12 [acalabrutinib]																		Neither ibrutinib nor acalabrutinib have been associated with clinically relevant prolongation of the QTc interval
